Publication PMC8786932, “Bicyclic azetidines target acute and chronic stages of Toxoplasma gondii by inhibiting parasite phenylalanyl t-RNA synthetase” (Nature Communications, 2022)
pEC50: −log10 of the molar value. Several values for one entry are separate records, joined by “and”; a condition that tells them apart may be missing. Identical values can stand only once. Like-named read-outs stand apart in the source and are kept apart here.

Experiments:
[1] = system: T. gondii ME49-FLuc chronic infection; type: in vivo, Ifngr1-/- mice; settings: for Days (survival time of single mouse) / Survival event flag of single mouse (1 or 0): Fig 6C
Procedure: (§1) Ifngr1^−/− (B6.129S7-Ifngr1 ^tm1Agt /J) and CBA/J mice were purchased from Jackson Laboratory and bred locally at Washington University. Animal studies were conducted according to the U.S. Public Health Service policy on human care and use of laboratory animals. Animals were maintained in facilities approved by the Association for Assessment and Accreditation of Laboratory Animal Care. Studies were approved by Division of Comparative Medicine, Washington University. […] Animals were maintained on a 12:12 light cycle, room temperature maintained at 70℉ ± 2℉, and room humidity maintained at 50% ± 20%.
(§2) Testing of compounds to prevent reactivation of chronic infection was […] to test the efficacy of PheRS inhibitors against chronic infection. In both cases, male and female C57BL/6 Ifngr1^−/− mice were infected by oral gavage with 5 cysts of the ME49-Fluc strain isolated from chronically infected CBA/J mice. […] Animals were monitored for survival and weight loss for 30 days post-treatment.

[2] = system: T. gondii ME49-FLuc tissue cysts; type: in vivo, Ifngr1-/- mice
Procedure: as §1, §2

[3] = system: T. gondii RHΔΔ TgPheRS[L497I]; assay: Tachyzoite lytic assay, L497I mutant; type: cell-based, Toxoplasma gondii; settings: for % Parasite Growth: L497I; for pEC50: Toxoplasma gondii
Procedure: In vitro cultures of HFF cells containing mature vacuoles were scraped, passaged through 23 g blunt end needles, and filtered using 3 micron filters. Purified parasites were resuspended in 350 μL of cytomix plus[49] and combined in a BTX 4 mm gap cuvette with 30 μL of PCR amplified templates corresponding to mutations of interest and 10 μg of pSAG1:Cas9-GFP U6:sgTgPheRS^[mut] (in 20 μL, 400 μL total volume, see Supplementary Data 1 for sgRNA sequences) prior to electroporation using a BTX ETM 830 electroporator. Amplified templates for TgPheRS mutations were generated from gBlocks (Integrated DNA Technologies, Coralville, IA, USA) that contain a BclI restriction site that replaces the PAM sequence to protect the repair template from being cut by Cas9. At 16 h post-transfection, transgenic parasites expressing pSAG1:Cas9-GFP were sorted on a Sony SH800 FACS sorter directly into 96-well plates. Single clones containing TgPheRS^[mut] were identified by amplifying a ~500 bp PCR fragment around introduced mutation followed by digestion using BclI (New England Biolabs) BclI sensitive clones were expanded and the locus was Sanger sequenced to verify incorporation of each independent mutation. To generate firefly luciferase (FLuc) expressing strains, freshly harvested parasites were combined with 20 μg of pTUB-FLUC DHFR flox plasmid and 10 μg of pSAG1:Cas9-GFP U6:sgUPRT[50] (in 50 μL cytomix plus) and transformed by electroporation as described above. Parasites were allowed to recover overnight followed by sequential selection with pyrimethamine (1.0 μM) and 5-flurodeoxyuracil (FUDR, 10 μM), as described previously. Stable clones were isolated by limiting dilution and a clone from each genetic background selected based on high luciferase activity (Table 1).
Parasite growth on HFF monolayers was monitored using a 96-well plate-based lytic assay modified from a previously described protocol. […]. Freshly harvested parasites (7.5 × 10^4 /well) were added to each well (in 100uL volume) to reach the final concentration range (10 μM to 0.0005 μM, 200 μL/well, 0.1% DMSO). Plates were incubated for 72 h at 37 °C then culture medium was aspirated and monolayers were fixed with 100% ethanol (ETOH) for 5 min at room temperature (RT). After rinsing with water, wells were stained with 0.1% crystal violet solution for 10 min at RT. Plates were rinsed with water, air dried, and absorption quantified on the Cytation 3 multi-mode imager at 570 nm wavelength. % parasite growth was calculated as 100−[(OD value for infected cultures at each concentration of compound/average OD value for no compound and no parasite infection) × 100]. EC50 values were calculated based on the mean of three biological replicates with each replicate containing two technical replicates.

COc1ccc(NC(=O)N2CCCCN3[C@H](CN(C)C)[C@H](c4ccc(C#Cc5ccccc5)cc4)[C@@H]3C2)cc1 [BRD7929]
onset of death, reactivation model ([1]; 10 mg/kg p.o. QD, 16 days): delayed onset of death
survival vs vehicle, reactivation model ([1]; 10 mg/kg p.o. once a day, 16 days, P = 0.0003, Mantel-Cox): survived significantly longer
Days (survival of individual mice) ([1]; 10 mg/kg, c3: 1 = death, 0 = survivor): 10 days and 12 days and 24 days and 20 days and 30 days and 23 days and 22 days
Days (survival time of single mouse) ([1]; 10d-10 mg / kg): 13 days and 29 days and 14 days and 17 days and 19 days and 16 days
Survival event flag of single mouse (1 or 0) ([1]; 10d-10 mg / kg): 1 and 0
Days (survival time of single mouse) ([1]; 20d - 10 mg / kg, 10 mg/kg): 29 days and 17 days and 15 days and 20 days and 19 days and 22 days
Survival event flag of single mouse (1 or 0) ([1]; 20d - 10 mg / kg, 10 mg/kg): 0 and 1
survival vs sulfadiazine, oral challenge model ([2]; 10 mg/kg p.o. 20 days, P = 0.0487, Mantel-Cox): survived significantly longer than sulfadiazine mice
mean survival ([2]; 10 mg/kg p.o. QD for 10 days from 48 h post-challenge): 16.5 days
mean survival ([2]; 10 mg/kg p.o. QD for 20 days from 48 h post-challenge): 21 days
mice in which death was prevented ([2]; 10 mg/kg p.o. QD, 20 days): 3 of 8
animals cured by treatment, overall ([2]; 10 day and 20 day cohorts together): 4 of 16
% Parasite Growth ([3]; 0.00152416 uM): 80.35% and 85.68% and 82.9%
% Parasite Growth ([3]; 0.00457247 uM): 85.9% and 86.11% and 77.47%
% Parasite Growth ([3]; 0.01371742 uM): 84.76% and 87.14% and 84.02%
% Parasite Growth ([3]; 0.04115226 uM): 84.55% and 85.22% and 84.57%
% Parasite Growth ([3]; 0.12345679 uM): 86.89% and 87% and 83.23%
% Parasite Growth ([3]; 0.37037037 uM): 70.95% and 85.33% and 85.39%
% Parasite Growth ([3]; 1.11111111 uM): 77.92% and 85.54% and 61.12%
% Parasite Growth ([3]; 3.33333333 uM): 63.14%
% Parasite Growth ([3]; 10 uM): 57.07% and 70.68% and 64.5%
pEC50 ([3]; read-out: EC50 (growth restriction)): 5.64
pEC50 ([3]; read-out: EC50, L497I): 5.93
